We go through four compounds from patent US10633407B2, “14-membered ketolides and methods of their preparation and use” (President and Fellows of Harvard College, priority 2014, dated 2020).

Assay in all cases: CLSI broth dilution MIC determination
Common to all, as to format: cell-based

Test [1] deals with K. pneumoniae MP-546 Clinical-MDR.
Another test relates to P. aeruginosa ATCC 27853. Particulars: P. aeruginosa ATCC 27853 (MP-3).
The subject of test [2] is P. aeruginosa MP-8 PAO1:mex (mex-oprM-deletion).
For test [3], the system named is S. aureus MP-17 ATCCBAA-977 (BAA 977 iErm). The following applies: S. aureus MP-17, ATCCBAA-977, iErm. An excerpt: (§1) MIC data was collected for the novel macrolides that this platform has produced against over 21 unique strains of B. subtilis, E. coli, S. aureus, S. pneumoniae, and H. influenzae, including several multidrug-resistant strains, with a special focus on macrolide resistant mechanisms (vide supra). Azithromycin (Azithro) and Solithromycin (Solithro) were included as a control macrolides in many cases. CLSI standard procedures for broth dilution MIC determination were used. […] These genotypes can be constitutive or inducible.

The test system of another test is S. aureus ATCC 29213. The following applies: S. aureus ATCC 29213 (MP-12).
Description: as §1

The subject of test [4] is E. coli MP-532 clinical-cErmB.
Description: as §1

A further test has as its system E. coli ATCC 25922.
Description: as §1

In test [5] the test system is E. coli MP-9 ATCC25922:tolC.
Description: as §1

A further test relates to S. aureus MRSA: USA300. The following applies: S. aureus MRSA: USA300 (MP-549, msr(a)).
Description: as §1

In test [6] the test system is S. aureus (MRSA) MP-513 ST-228 cErm (Clinical-cErm).
Description: as §1

A further test has as its system E. coli MP-541 clinical.
Description: as §1

The subject of the next test is A. baumannii ATCC 19606. The following applies: A. baumannii ATCC 19606 (MP-15).
Another test has as its system K. pneumoniae ATCC 10031.
For a further test, the system named is P. aeruginosa MP-7 PAO1.
Test [7] deals with A. baumannii MP-576 Clinical-MDR.
Test [8] has as its system K. pneumoniae MP-548 clinical.
For test [9], the system named is A. baumannii MP-577 Clinical-AZT low.
The mark [10] stands for this setting: Klebsiella pneumoniae, read-out: MIC.
Setting [11] is: Pseudomonas aeruginosa, ATCC27853, read-out: MIC.
The mark [12] stands for this setting: Staphylococcus aureus, read-out: MIC.
Where [13] appears, read: Staphylococcus aureus, ATCC29213, read-out: MIC.
Where [14] appears, read: Escherichia coli, ATCC25922, E. coli ATCC 25922 (MP-4), read-out: MIC.
Setting [15] is: Escherichia coli, MP541CLINICAL, read-out: MIC.
Setting [16] is: Acinetobacter baumannii, ATCC19606, read-out: MIC.
[17] abbreviates: Klebsiella pneumoniae, ATCC10031, K. pneumoniae ATCC 10031 (MP-14), read-out: MIC.
[18] abbreviates: Pseudomonas aeruginosa, read-out: MIC.
The mark [19] stands for this setting: Acinetobacter baumannii, read-out: MIC.
Where [20] appears, read: Klebsiella pneumoniae, MP548CLINICAL, read-out: MIC.
[21] abbreviates: P. aeruginosa MP-8, PAO1:mex, mex-oprM-deletion.
[22] abbreviates: K. pneumoniae ATCC 10031 (MP-14).

Molecules are shown by their SMILES. Values after ≈ are worked out from the molar mass of the structure shown. Where two headings read alike, the source gives them in different places. Bounds are passed on as bounds.

Consider `CC[C@H]1OC(=O)[C@@](C)(F)C(=O)[C@H](C)[C@@H](O[C@@H]2OC(C)CC(N(C)C)C2O)[C@](C)(OC)C[C@@H](C)C(=O)[C@H](C)[C@H]2N(CC#CCn3cc(-c4cc(N)ccn4)nn3)C(=O)O[C@]12C` (some centres unmarked) [FSM-100593], for which the MIC is 32 µg/mL (≈ 38 µM) in test [1] (setting [10]); 32 µg/mL (≈ 38 µM) with P. aeruginosa ATCC 27853 (setting [11]); 2 µg/mL (≈ 2.38 µM) in test [2] (Pseudomonas aeruginosa, PAO1); 0.125 µg/mL (≈ 0.148 µM) in [3] (setting [12]); 0.125 µg/mL (≈ 0.148 µM) with S. aureus ATCC 29213 (setting [13]); greater than 64 µg/mL in test [4] (Escherichia coli). The MIC with E. coli ATCC 25922 (setting [14]) was 4 µg/mL (≈ 4.75 µM); in test [5] (Escherichia coli, ATCC25922), 0.5 µg/mL (≈ 0.594 µM); with S. aureus MRSA: USA300 (setting [12]) it was 0.25 µg/mL (≈ 0.297 µM); in test [6] (setting [12]), 64 µg/mL (≈ 76 µM); with E. coli MP-541 clinical (setting [15]), 8 µg/mL (≈ 9.5 µM); in the test with A. baumannii ATCC 19606 (setting [16]), 8 µg/mL (≈ 9.5 µM). Moreover, the MIC is 1 µg/mL (≈ 1.19 µM) with K. pneumoniae ATCC 10031 (setting [17]); 32 µg/mL (≈ 38 µM) in the test with P. aeruginosa MP-7 PAO1 (setting [18]); greater than 64 µg/mL in test [7] (setting [19]); 16 µg/mL (≈ 19 µM) in test [8] (setting [20]); 8 µg/mL (≈ 9.5 µM) in [9] (setting [19]).

Turning to `CCC1OC(=O)C(C)(F)C(=O)C(C)C(OC2OC(C)CC(N(C)C)C2O)C(C)(OC)CC(C)C(=O)C(C)C2N(CC=C=Cn3cc(-c4ccnc(N)n4)nn3)C(=O)OC12C` (centres unmarked) [FSM-22737], the MIC was greater than 64 µg/mL in [1]; greater than 64 µg/mL with P. aeruginosa ATCC 27853; 16 µg/mL (≈ 19 µM) in test [2] (setting [21]); 0.25 µg/mL (≈ 0.297 µM) in test [3]; 0.25 µg/mL (≈ 0.297 µM) in the test on S. aureus ATCC 29213; greater than 64 µg/mL in [4] (E. coli MP-532, clinical-cErmB). In addition, the MIC in the test on E. coli ATCC 25922 (E. coli ATCC 25922 (MP-4)) is 16 µg/mL (≈ 19 µM); in test [5] (E. coli MP-9, ATCC25922:tolC), 2 µg/mL (≈ 2.37 µM); in the test with S. aureus MRSA: USA300, 0.25 µg/mL (≈ 0.297 µM); in [6], greater than 64 µg/mL; in the test on E. coli MP-541 clinical, 16 µg/mL (≈ 19 µM); with A. baumannii ATCC 19606, 16 µg/mL (≈ 19 µM). The minimal inhibitory concentration (MIC) in the test with K. pneumoniae ATCC 10031 (setting [22]) is 8 µg/mL (≈ 9.49 µM); against P. aeruginosa MP-7 PAO1 it was greater than 64 µg/mL; in [7], greater than 64 µg/mL; in test [8], 64 µg/mL (≈ 75.9 µM); in test [9], 32 µg/mL (≈ 38 µM).

Take `CCC1OC(=O)C(C)(F)C(=O)C(C)C(OC2OC(C)CC(N(C)C)C2O)C(C)(OC)CC(C)C(=O)C(C)C2N(CC=C=Cn3cc(-c4cnccn4)nn3)C(=O)OC12C` (centres unmarked) [FSM-22740]: the MIC in [1] is greater than 64 µg/mL; with P. aeruginosa ATCC 27853 it was greater than 64 µg/mL; in [2] (setting [21]), 16 µg/mL (≈ 19.3 µM); in [3] it was 0.25 µg/mL (≈ 0.302 µM); in the test with S. aureus ATCC 29213, 0.25 µg/mL (≈ 0.302 µM); in test [4] (E. coli MP-532, clinical-cErmB), greater than 64 µg/mL. Moreover, the MIC against E. coli ATCC 25922 (E. coli ATCC 25922 (MP-4)) was 16 µg/mL (≈ 19.3 µM); in [5] (E. coli MP-9, ATCC25922:tolC), 2 µg/mL (≈ 2.42 µM); in the test on S. aureus MRSA: USA300, 0.25 µg/mL (≈ 0.302 µM); in [6], 64 µg/mL (≈ 77.3 µM); in the test on E. coli MP-541 clinical it was 16 µg/mL (≈ 19.3 µM); in the test on A. baumannii ATCC 19606, 16 µg/mL (≈ 19.3 µM). The MIC is 8 µg/mL (≈ 9.66 µM) against K. pneumoniae ATCC 10031 (setting [22]); greater than 64 µg/mL against P. aeruginosa MP-7 PAO1; greater than 64 µg/mL in [7]; greater than 64 µg/mL in test [8]; 64 µg/mL (≈ 77.3 µM) in test [9].

With `CC[C@H]1OC(=O)[C@@](C)(F)C(=O)[C@H](C)[C@@H](O[C@@H]2OC(C)CC(N(C)C)C2O)[C@](C)(OC)C[C@@H](C)C(=O)[C@H](C)[C@H]2N(CC#CCn3cc(-c4cc(OC)ccn4)nn3)C(=O)O[C@]12C` (some centres unmarked) [FSM-100576], the MIC in test [1] (setting [10]) is greater than 32 µg/mL; in the test on P. aeruginosa ATCC 27853 (setting [11]) it was greater than 32 µg/mL; in test [2] (Pseudomonas aeruginosa, PAO1), 8 µg/mL (≈ 9.33 µM); in test [3] (setting [12]), 0.125 µg/mL (≈ 0.146 µM); in the test on S. aureus ATCC 29213 (setting [13]), 0.125 µg/mL (≈ 0.146 µM); in [4] (Escherichia coli) it was greater than 32 µg/mL. Further, the minimum inhibitory concentration (MIC) with E. coli ATCC 25922 (setting [14]) was 32 µg/mL (≈ 37.3 µM); in test [5] (Escherichia coli, ATCC25922), 2 µg/mL (≈ 2.33 µM); with S. aureus MRSA: USA300 (setting [12]), 0.25 µg/mL (≈ 0.292 µM); in test [6] (setting [12]), greater than 32 µg/mL; in the test on E. coli MP-541 clinical (setting [15]), 32 µg/mL (≈ 37.3 µM); with A. baumannii ATCC 19606 (setting [16]) it was 16 µg/mL (≈ 18.7 µM). Moreover, the MIC in the test with K. pneumoniae ATCC 10031 (setting [17]) was 4 µg/mL (≈ 4.67 µM); with P. aeruginosa MP-7 PAO1 (setting [18]), greater than 32 µg/mL; in test [7] (setting [19]), greater than 32 µg/mL; in test [8] (setting [20]), greater than 32 µg/mL; in test [9] (setting [19]), greater than 32 µg/mL.
